According to US10202604B2, “Methods of using microRNA-141” (Stemirna Therapeutics Co., Ltd., priority 2016, dated 2019):

Experiments:
[1] = system: Du145 cells; experiment: Boyden chamber Matrigel invasion assay; assay type: cell-based, human; details: 1, 2, and 5 μM for 96 h
Protocol: FIGS. 3A-3J show partial suppression of epithelial to mesenchymal transition by miR-141 and CD44 as a direct target of miR-141. FIGS. 3A-3B show qPCR analysis of epithelial to mesenchymal transition markers in bulk (FIG. 3A) or CD44^+ (FIG. 3B) Du145 cells transfected with the miR-141 oligos (30 nM; 48 h). Results were presented as the relative expression levels over the cells transfected with the NC oligos. […] GAPDH was used as control and the relative protein levels after normalizing to GAPDH and NC controls were indicated below each lane. […] Shown below is the actual sequence in the region with the mutated miR-141 binding sequence indicated in grey (below). […] Shown are representative images. […]
Du145 cells transfected with NC or miR-141 oligos at the two doses and time intervals indicated were used in Western blotting. Indicated below are relative expression levels (normalized to respective GAPDH and compared to NC) of each protein determined by densitometric scanning of the individual bands. […]
FIG. 6A: Putative binding site of miR-141 in EZH2 3′-UTR. […] Relative protein levels were measured by densitometry and normalized to GAPDH levels (indicated below). […]
For Boyden Chamber invasion assays, Biocoat Matrigel Invasion Chamber (BD, Franklin Lakes, N.J.) was employed following the manufacturer's instructions. […] Representative images were taken for each membrane and cells were counted. […]

[2] = system: EZH2; experiment: EZH2 mRNA and protein levels; assay type: cell-based, human; details: Du145 cells; 1, 2, and 5 μM for 96 h
Protocol: FIG. 6A: Putative binding site of miR-141 in EZH2 3′-UTR. […] FIG. 6C is a qPCR analysis of EZH2 mRNA levels in CD44^+ PCa cells. Bars, mean±SD. *P<0.05; **P<0.01. […] Bars, mean±SD. **P<0.01. […] Western blotting was performed in PC3 and Du145 cells transfected with NC (60 nM) or miR-141 (30 or 60 nM) oligos (72 h). Relative protein levels were measured by densitometry and normalized to GAPDH levels (indicated below). […] Du145 cells plated one day before were treated with 1, 2, and 5 μM of DZNep for 96 h and then cells were harvested for invasion assays. **P<0.01. Inset, WB showing reduced EZH2 proteins by DZNep. […] Du145 cells were transfected with 10 nM scramble siRNA (siCon) or EZH2-targeting siRNAs (siEZH2) or siEZH2 plus anti-miR-141 (30 nM). 48 h later, cells were harvested for invasion assays. Bars, mean±SD. **P<0.01. […] Du145 cells were co-transfected with 30 nM NC or miR-141 oligos together with empty vector or pCMV-EZH2 construct. After 48 h, cells were harvested for invasion assay. Bars, mean±SD. **P<0.01.
Total RNA was extracted using microRNA isolation kit (Life Technologies) according to the manufacturer's instructions. microRNA qPCRs were performed using TaqMan microRNA assays (Life Technologies). qPCR data for microRNAs were normalized to RNU48 whereas qPCR data for mRNAs were normalized to GAPDH.
For Boyden Chamber invasion assays, Biocoat Matrigel Invasion Chamber (BD, Franklin Lakes, N.J.) was employed following the manufacturer's instructions. Briefly, 100,000-200,000 of prostate cancer cells after transfection with […]/miR-141 oligos or infection with miR-141 over-expressing lentivirus were seeded into each well. Medium with 20% fetal bovine serum was used in the lower chamber as chemo-attractant. After 20 h, cells were fixed and stained using HEMA stain. Representative images were taken for each membrane and cells were counted. Migration assays were simultaneously performed in control wells using identical protocol with Transwell (Costar; 8 μl PET) without Matrigel. […]

Cl.Nc1nccc2c1ncn2[C@@H]1C=C(CO)[C@@H](O)[C@H]1O [DZNep, 3-Deazaneplanocin A hydrochloride, reference compound]
Du145 cell invasion [1]: blocked
EZH2 protein [2]: reduced
